Experimental data: US12448369B2 (Edgewise Therapeutics, Inc., priority 2023, dated 2025)

test system: Porcine atria myofibrils (atrial myosin ATPase); test: Myofibril ATPase assay, porcine atria myofibrils; format: biochemical; conditions: porcine atria myofibrils; Y75 value (75% activity relative to no compound)
In short: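 Coupled PK-LDH readout, NADH loss at 340 nm, kinetic 75 min. Porcine atria myofibrils, pCa buffer (PIPES/CaCl2/EGTA, pH 7.0). Slopes (mAU/min) normalized to vehicle = 100%, 4-parameter fit; Y75 or Y125 reported.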

Question: How did the “Atrial EC25” value turn out when `Cc1c(CC(=O)N[C@@H](CO)c2ncccc2F)c(=O)[nH]c2ccnc(C#N)c12` (single isomer, unassigned) [compound 236] was run?
Answer: 38.11 µM

Question: How did the “Atrial EC25” value turn out when `C[C@H](NC(=O)Cc1cc2c(C3CC3)nccc2[nH]c1=O)c1ccc(F)cc1F` [compound 432] was run?
Answer: 16.07 µM

Question: For `Cc1nccc2[nH]c(=O)c([C@@H](C)C(=O)N[C@@H](C)c3ccc(F)cc3F)c(C(F)(F)F)c12` (single isomer, unassigned) [compound 410], which “Atrial EC25” value is on record?
Answer: 5.46 µM

Question: `Cc1c(CC(=O)N[C@H](C)c2ccc(F)cc2F)c(=O)[nH]c2ccnc(C(F)(F)F)c12` [compound 270] was tested. Which “Atrial EC25” value did it give?
Answer: 100.00 µM

Question: `COC[C@H](NC(=O)Cc1c(C)c2c(C#N)nccc2[nH]c1=O)c1ncc(F)cc1F` [compound 160] was tested. Which “Atrial EC25” value did it give?
Answer: 0.13 µM

Question: With `Cc1c(CC(=O)N[C@H](C)c2ncc(C#N)cc2F)c(=O)[nH]c2ccnc(C#N)c12` (single isomer, unassigned) [compound 284] as the compound, how does the “Atrial EC25” value read?
Answer: 4.56 µM

Question: Which “Atrial EC25” value does the source give for `Cc1nccc2[nH]c(=O)c(CC(=O)N[C@H]3COc4cccnc43)c(C)c12` (single isomer, unassigned) [compound 252] here?
Answer: 100.00 µM

Question: With `Cc1c(CC(=O)N[C@@H](c2ccc(F)cc2F)C(C)(C)O)c(=O)[nH]c2ccnc(C#N)c12` (single isomer, unassigned) [compound 279] as the compound, how does the “Atrial EC25” value read?
Answer: 78.18 µM

Question: With `Cc1c(CC(=O)N[C@@H](C)c2ccc(F)cc2F)c(=O)[nH]c2ccnc(I)c12` [compound 353] as the compound, how does the “Atrial EC25” value read?
Answer: 0.14 µM

Question: For `C[C@H](NC(=O)Cc1c(C(F)(F)F)c2c(C3CC3)nccc2[nH]c1=O)c1ncc(C#N)cn1` (single isomer, unassigned) [compound 3002], which “Atrial EC25” value is on record?
Answer: 100.00 µM

Question: How did the “Atrial EC25” value turn out when `Cc1c(CC(=O)N[C@@H](C)c2ccc(S(C)(=O)=O)cc2F)c(=O)[nH]c2ccnc(C#N)c12` (single isomer, unassigned) [compound 215] was run?
Answer: 100.00 µM

Question: How did the “Atrial EC25” value turn out when `Cc1nc(C#N)ncc1[C@H](C)NC(=O)Cc1c(C)c2c(C)nccc2[nH]c1=O` [compound 465] was run?
Answer: 100.00 µM

Question: `COc1cccc([C@@H](C)NC(=O)Cc2c(C)c3c(C)nccc3[nH]c2=O)n1` (single isomer, unassigned) [compound 309] was tested. Which “Atrial EC25” value did it give?
Answer: 100.00 µM

Question: For `C[C@H](NC(=O)[C@@H](C)c1cc2c(Br)nccc2[nH]c1=O)c1ccc(F)cc1F` (single isomer, unassigned) [compound 344], which “Atrial EC25” value is on record?
Answer: 9.52 µM

Question: `Cc1c(CC(=O)N[C@@H](C)c2ccc(F)cc2F)c(=O)[nH]c2ccnc(OCC(F)F)c12` [compound 380] was tested. Which “Atrial EC25” value did it give?
Answer: 0.06 µM

Question: Which “Atrial EC25” value does the source give for `Cc1nccc2[nH]c(=O)c(CC(=O)N[C@H]3CCc4cc(F)cc(F)c43)c(C)c12` [compound 406] here?
Answer: 0.10 µM

Question: For `COc1nccc2[nH]c(=O)c(CC(=O)N[C@@H](C)c3ccc(F)cc3F)cc12` [compound 434], which “Atrial EC25” value is on record?
Answer: 0.65 µM

Question: Which “Atrial EC25” value does the source give for `C[C@H](NC(=O)Cc1c(C(F)F)c2cnccc2[nH]c1=O)c1ccc(F)cc1F` [compound 438] here?
Answer: 2.35 µM

same assay, conditions: ‡ Y125 value, not a Y75 value (125% activity relative to no compound); porcine atria myofibrils

Question: Which “Atrial EC25” value does the source give for `Cc1c(C2(C(=O)N[C@H](C)c3cccc(C#N)n3)CC2)c(=O)[nH]c2ccc(F)c(F)c12` (single isomer, unassigned) [compound 2547] here?
Answer: 100.00‡ μM

target: T1, Porcine ventricle myofibrils (ventricular myosin ATPase) (Sus scrofa, UniProt P79293); test: Myofibril ATPase assay, porcine ventricle myofibrils; format: biochemical, porcine (Yucatan minipigs); conditions: porcine ventricle myofibrils; Y75 value
T1 construct: Myofibrils from porcine cardiac muscle was isolated from the left ventricle of Yucatan minipigs; tissue Exemplar Genetics; host or cells: left ventricle of Yucatan minipigs, myofibrils prepared in house
T1 sequence (P79293 whole entry): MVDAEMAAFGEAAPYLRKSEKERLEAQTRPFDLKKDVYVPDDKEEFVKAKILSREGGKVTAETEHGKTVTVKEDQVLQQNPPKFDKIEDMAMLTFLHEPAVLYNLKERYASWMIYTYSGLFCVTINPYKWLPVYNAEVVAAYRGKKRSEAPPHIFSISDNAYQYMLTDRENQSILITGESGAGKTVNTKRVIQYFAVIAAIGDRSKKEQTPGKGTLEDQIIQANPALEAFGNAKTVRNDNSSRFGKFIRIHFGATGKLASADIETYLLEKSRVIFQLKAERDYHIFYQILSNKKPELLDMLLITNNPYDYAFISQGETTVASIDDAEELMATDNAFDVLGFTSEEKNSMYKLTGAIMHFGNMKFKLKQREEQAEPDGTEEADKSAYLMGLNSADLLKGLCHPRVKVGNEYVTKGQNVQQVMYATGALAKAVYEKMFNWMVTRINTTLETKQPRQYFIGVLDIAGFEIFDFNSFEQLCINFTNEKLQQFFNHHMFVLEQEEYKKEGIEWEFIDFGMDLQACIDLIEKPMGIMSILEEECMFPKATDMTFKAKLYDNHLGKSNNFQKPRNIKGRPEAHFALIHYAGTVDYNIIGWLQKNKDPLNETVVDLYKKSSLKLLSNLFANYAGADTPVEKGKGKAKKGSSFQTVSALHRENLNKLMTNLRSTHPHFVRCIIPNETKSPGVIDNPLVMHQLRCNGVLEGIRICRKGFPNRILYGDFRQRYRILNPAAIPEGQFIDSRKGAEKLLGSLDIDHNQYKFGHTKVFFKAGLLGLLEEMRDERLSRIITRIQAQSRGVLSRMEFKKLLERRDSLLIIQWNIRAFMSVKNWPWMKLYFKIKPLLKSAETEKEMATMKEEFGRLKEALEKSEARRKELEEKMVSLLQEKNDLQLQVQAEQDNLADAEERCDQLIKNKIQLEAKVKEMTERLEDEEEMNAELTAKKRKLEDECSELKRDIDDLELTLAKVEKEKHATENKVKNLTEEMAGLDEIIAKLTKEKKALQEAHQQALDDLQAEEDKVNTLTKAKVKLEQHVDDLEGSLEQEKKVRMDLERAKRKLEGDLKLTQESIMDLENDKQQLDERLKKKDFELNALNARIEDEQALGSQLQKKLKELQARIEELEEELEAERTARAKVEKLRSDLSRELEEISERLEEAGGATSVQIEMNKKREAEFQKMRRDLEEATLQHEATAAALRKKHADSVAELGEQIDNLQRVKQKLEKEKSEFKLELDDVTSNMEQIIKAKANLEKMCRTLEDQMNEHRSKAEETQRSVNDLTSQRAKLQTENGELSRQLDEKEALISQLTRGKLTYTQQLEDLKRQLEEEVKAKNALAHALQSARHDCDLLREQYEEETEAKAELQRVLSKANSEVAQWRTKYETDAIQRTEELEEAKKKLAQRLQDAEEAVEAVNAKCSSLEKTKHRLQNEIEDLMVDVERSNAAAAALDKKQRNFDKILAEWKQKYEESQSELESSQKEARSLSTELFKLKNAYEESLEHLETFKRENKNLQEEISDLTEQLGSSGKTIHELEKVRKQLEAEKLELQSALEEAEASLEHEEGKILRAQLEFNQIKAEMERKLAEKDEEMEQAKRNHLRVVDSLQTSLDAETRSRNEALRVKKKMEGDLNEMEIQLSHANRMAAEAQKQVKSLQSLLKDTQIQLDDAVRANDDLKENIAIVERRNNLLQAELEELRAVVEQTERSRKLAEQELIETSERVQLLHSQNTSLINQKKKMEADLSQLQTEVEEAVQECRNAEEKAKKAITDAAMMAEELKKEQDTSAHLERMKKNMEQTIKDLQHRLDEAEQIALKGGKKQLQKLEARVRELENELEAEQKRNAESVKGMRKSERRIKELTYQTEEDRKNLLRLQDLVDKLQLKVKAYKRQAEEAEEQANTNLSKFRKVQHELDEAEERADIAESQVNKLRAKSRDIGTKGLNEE
In short: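 In a coupled enzyme format, ADP from myofibril ATPase drives NADH oxidation, monitored kinetically at 340 nm for 75 min using minipig ventricle myofibrils. Effective concentrations giving 25% loss or gain of activity relative to vehicle were calculated from 4-parameter fits.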

Question: For `Cc1c(CC(=O)N[C@@H](CO)c2ncccc2F)c(=O)[nH]c2ccnc(C#N)c12` (single isomer, unassigned) [compound 236], which “Ventricular EC25” value is on record?
Answer: 100.00 µM

Question: `C[C@H](NC(=O)Cc1cc2c(C3CC3)nccc2[nH]c1=O)c1ccc(F)cc1F` [compound 432] was tested. Which “Ventricular EC25” value did it give?
Answer: 80.53 µM

Question: For `Cc1nccc2[nH]c(=O)c([C@@H](C)C(=O)N[C@@H](C)c3ccc(F)cc3F)c(C(F)(F)F)c12` (single isomer, unassigned) [compound 410], which “Ventricular EC25” value is on record?
Answer: 100.00 µM

Question: How did the “Ventricular EC25” value turn out when `Cc1c(CC(=O)N[C@H](C)c2ccc(F)cc2F)c(=O)[nH]c2ccnc(C(F)(F)F)c12` [compound 270] was run?
Answer: 100.00 µM

Question: Which “Ventricular EC25” value does the source give for `COC[C@H](NC(=O)Cc1c(C)c2c(C#N)nccc2[nH]c1=O)c1ncc(F)cc1F` [compound 160] here?
Answer: 2.23 µM

Question: `Cc1c(CC(=O)N[C@H](C)c2ncc(C#N)cc2F)c(=O)[nH]c2ccnc(C#N)c12` (single isomer, unassigned) [compound 284] was tested. Which “Ventricular EC25” value did it give?
Answer: 10.63 µM

Question: For `Cc1nccc2[nH]c(=O)c(CC(=O)N[C@H]3COc4cccnc43)c(C)c12` (single isomer, unassigned) [compound 252], which “Ventricular EC25” value is on record?
Answer: 100.00 µM

Question: How did the “Ventricular EC25” value turn out when `Cc1c(CC(=O)N[C@@H](c2ccc(F)cc2F)C(C)(C)O)c(=O)[nH]c2ccnc(C#N)c12` (single isomer, unassigned) [compound 279] was run?
Answer: 100.00 µM

Question: `Cc1c(CC(=O)N[C@@H](C)c2ccc(F)cc2F)c(=O)[nH]c2ccnc(I)c12` [compound 353] was tested. Which “Ventricular EC25” value did it give?
Answer: 0.31 µM

Question: How did the “Ventricular EC25” value turn out when `C[C@H](NC(=O)Cc1c(C(F)(F)F)c2c(C3CC3)nccc2[nH]c1=O)c1ncc(C#N)cn1` (single isomer, unassigned) [compound 3002] was run?
Answer: 100.00 µM

Question: For `Cc1c(CC(=O)N[C@@H](C)c2ccc(S(C)(=O)=O)cc2F)c(=O)[nH]c2ccnc(C#N)c12` (single isomer, unassigned) [compound 215], which “Ventricular EC25” value is on record?
Answer: 100.00 µM

Question: `Cc1nc(C#N)ncc1[C@H](C)NC(=O)Cc1c(C)c2c(C)nccc2[nH]c1=O` [compound 465] was tested. Which “Ventricular EC25” value did it give?
Answer: 100.00 µM

Question: How did the “Ventricular EC25” value turn out when `COc1cccc([C@@H](C)NC(=O)Cc2c(C)c3c(C)nccc3[nH]c2=O)n1` (single isomer, unassigned) [compound 309] was run?
Answer: 100.00 µM

Question: How did the “Ventricular EC25” value turn out when `C[C@H](NC(=O)[C@@H](C)c1cc2c(Br)nccc2[nH]c1=O)c1ccc(F)cc1F` (single isomer, unassigned) [compound 344] was run?
Answer: 90.74 µM

Question: `Cc1c(CC(=O)N[C@@H](C)c2ccc(F)cc2F)c(=O)[nH]c2ccnc(OCC(F)F)c12` [compound 380] was tested. Which “Ventricular EC25” value did it give?
Answer: 0.77 µM

Question: Which “Ventricular EC25” value does the source give for `Cc1nccc2[nH]c(=O)c(CC(=O)N[C@H]3CCc4cc(F)cc(F)c43)c(C)c12` [compound 406] here?
Answer: 0.38 µM

Question: Which “Ventricular EC25” value does the source give for `COc1nccc2[nH]c(=O)c(CC(=O)N[C@@H](C)c3ccc(F)cc3F)cc12` [compound 434] here?
Answer: 3.84 µM

Question: `C[C@H](NC(=O)Cc1c(C(F)F)c2cnccc2[nH]c1=O)c1ccc(F)cc1F` [compound 438] was tested. Which “Ventricular EC25” value did it give?
Answer: 7.68 µM

same assay, conditions: ‡ Y125 value, not a Y75 value (125% activity relative to no compound); porcine ventricle myofibrils

Question: For `Cc1c(C2(C(=O)N[C@H](C)c3cccc(C#N)n3)CC2)c(=O)[nH]c2ccc(F)c(F)c12` (single isomer, unassigned) [compound 2547], which “Ventricular EC25” value is on record?
Answer: 58.38‡ μM

test system: Rabbit Psoas myofibrils (skeletal myosin ATPase); test: Myofibril ATPase assay, rabbit psoas (skeletal) myofibrils; format: biochemical; conditions: Y75 value (no ‡ mark); rabbit psoas myofibrils
In short: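 Readout: A340 decline from NADH oxidation, PK/LDH-coupled to ADP release; kinetic reads over 75 min. Buffer: pCa (PIPES, CaCl2, EGTA), pH 7.0. Linear-regression slopes vs vehicle, 4PL fit; reported as concentration giving 75% (Y75) or 125% (Y125) of vehicle activity.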

Question: `Cc1c(C2(C(=O)N[C@H](C)c3cccc(C#N)n3)CC2)c(=O)[nH]c2ccc(F)c(F)c12` (single isomer, unassigned) [compound 2547] was tested. Which “Skeletal EC25” value did it give?
Answer: 0.91 µM

same assay, conditions: rabbit psoas myofibrils; Y75 value

Question: How did the “Skeletal EC25” value turn out when `Cc1c(CC(=O)N[C@@H](CO)c2ncccc2F)c(=O)[nH]c2ccnc(C#N)c12` (single isomer, unassigned) [compound 236] was run?
Answer: 0.59 µM

Question: For `C[C@H](NC(=O)Cc1cc2c(C3CC3)nccc2[nH]c1=O)c1ccc(F)cc1F` [compound 432], which “Skeletal EC25” value is on record?
Answer: 0.47 µM

Question: For `Cc1nccc2[nH]c(=O)c([C@@H](C)C(=O)N[C@@H](C)c3ccc(F)cc3F)c(C(F)(F)F)c12` (single isomer, unassigned) [compound 410], which “Skeletal EC25” value is on record?
Answer: 0.76 µM

Question: How did the “Skeletal EC25” value turn out when `Cc1c(CC(=O)N[C@H](C)c2ccc(F)cc2F)c(=O)[nH]c2ccnc(C(F)(F)F)c12` [compound 270] was run?
Answer: 100.00 µM

Question: With `COC[C@H](NC(=O)Cc1c(C)c2c(C#N)nccc2[nH]c1=O)c1ncc(F)cc1F` [compound 160] as the compound, how does the “Skeletal EC25” value read?
Answer: 0.03 µM

Question: For `Cc1c(CC(=O)N[C@H](C)c2ncc(C#N)cc2F)c(=O)[nH]c2ccnc(C#N)c12` (single isomer, unassigned) [compound 284], which “Skeletal EC25” value is on record?
Answer: 0.49 µM

Question: Which “Skeletal EC25” value does the source give for `Cc1nccc2[nH]c(=O)c(CC(=O)N[C@H]3COc4cccnc43)c(C)c12` (single isomer, unassigned) [compound 252] here?
Answer: 100.00 µM

Question: With `Cc1c(CC(=O)N[C@@H](c2ccc(F)cc2F)C(C)(C)O)c(=O)[nH]c2ccnc(C#N)c12` (single isomer, unassigned) [compound 279] as the compound, how does the “Skeletal EC25” value read?
Answer: 1.29 µM

Question: Which “Skeletal EC25” value does the source give for `Cc1c(CC(=O)N[C@@H](C)c2ccc(F)cc2F)c(=O)[nH]c2ccnc(I)c12` [compound 353] here?
Answer: 0.06 µM

Question: `C[C@H](NC(=O)Cc1c(C(F)(F)F)c2c(C3CC3)nccc2[nH]c1=O)c1ncc(C#N)cn1` (single isomer, unassigned) [compound 3002] was tested. Which “Skeletal EC25” value did it give?
Answer: 100.00 µM

Question: With `Cc1c(CC(=O)N[C@@H](C)c2ccc(S(C)(=O)=O)cc2F)c(=O)[nH]c2ccnc(C#N)c12` (single isomer, unassigned) [compound 215] as the compound, how does the “Skeletal EC25” value read?
Answer: 100.00 µM

Question: For `Cc1nc(C#N)ncc1[C@H](C)NC(=O)Cc1c(C)c2c(C)nccc2[nH]c1=O` [compound 465], which “Skeletal EC25” value is on record?
Answer: 47.72 µM

Question: `COc1cccc([C@@H](C)NC(=O)Cc2c(C)c3c(C)nccc3[nH]c2=O)n1` (single isomer, unassigned) [compound 309] was tested. Which “Skeletal EC25” value did it give?
Answer: 100.00 µM

Question: Which “Skeletal EC25” value does the source give for `C[C@H](NC(=O)[C@@H](C)c1cc2c(Br)nccc2[nH]c1=O)c1ccc(F)cc1F` (single isomer, unassigned) [compound 344] here?
Answer: 0.23 µM

Question: How did the “Skeletal EC25” value turn out when `Cc1c(CC(=O)N[C@@H](C)c2ccc(F)cc2F)c(=O)[nH]c2ccnc(OCC(F)F)c12` [compound 380] was run?
Answer: 0.01 µM

Question: `Cc1nccc2[nH]c(=O)c(CC(=O)N[C@H]3CCc4cc(F)cc(F)c43)c(C)c12` [compound 406] was tested. Which “Skeletal EC25” value did it give?
Answer: 0.02 µM

Question: For `COc1nccc2[nH]c(=O)c(CC(=O)N[C@@H](C)c3ccc(F)cc3F)cc12` [compound 434], which “Skeletal EC25” value is on record?
Answer: 0.13 µM

Question: `C[C@H](NC(=O)Cc1c(C(F)F)c2cnccc2[nH]c1=O)c1ccc(F)cc1F` [compound 438] was tested. Which “Skeletal EC25” value did it give?
Answer: 0.60 µM
